Source: ChEMBL document CHEMBL2021806, “GnRH-III based multifunctional drug delivery systems containing daunorubicin and methotrexate” (Eur J Med Chem, 2012)
Activity calls are given as the source filed them. The calls are words filed in the database; no cut-off is given here.

Legend:
MCF7 = experiment: Cytostatic activity against human MCF7 cells after 4 days by MTT assay; format: functional, cell-based; conditions: MCF7, 96 h
LNCaP = experiment: Cytostatic activity against human LNCAP cells after 4 days by MTT assay; format: functional, cell-based; conditions: 96 h
HT-29 = experiment: Cytostatic activity against human HT-29 cells after 4 days by MTT assay; format: functional, cell-based; conditions: HT-29, 96 h
Serum [1] = experiment: Metabolic stability in human serum at 10 uM after 24 hrs by RP-HPLC analysis; format: ADME, cell-free
[2] = Drug metabolism in rat lysosomal homogenate assessed as large peptide fragment EHWK(MTX)HDWK(Ac)-OH formation at 0.1 ug/ul after 24 hrs by LC-MS analysis; format: ADME, tissue-based, Lysosome; conditions: tissue homogenate
MONO-MAC-6 [3] = experiment: Antiproliferative activity against human MONO-MAC-6 cells assessed as cell viability at 10^-6 M after 48 hrs by cell counting method relative to untreated control; format: functional
MONO-MAC-6 [4] = experiment: Antiproliferative activity against human MONO-MAC-6 cells assessed as inhibition of cell viability at 10^-9 M after 24 hrs by cell counting method; format: functional; conditions: MONO-MAC-6, 24 h, values are per cent of control
MONO-MAC-6 [5] = experiment: Antiproliferative activity against human MONO-MAC-6 cells assessed as inhibition of cell viability at 10^-9 M after 48 hrs by cell counting method; format: functional; conditions: MONO-MAC-6, 48 h, values are per cent of control
MONO-MAC-6 [6] = experiment: Antiproliferative activity against human MONO-MAC-6 cells assessed as inhibition of cell viability at 10^-9 M after 72 hrs by cell counting method; format: functional; conditions: MONO-MAC-6, 72 h, values are per cent of control
MONO-MAC-6 [7] = experiment: Antiproliferative activity against human MONO-MAC-6 cells assessed as inhibition of cell viability at 10^-8 M after 24 hrs by cell counting method; format: functional; conditions: MONO-MAC-6, 24 h, values are per cent of control
MONO-MAC-6 [8] = experiment: Antiproliferative activity against human MONO-MAC-6 cells assessed as inhibition of cell viability at 10^-8 M after 48 hrs by cell counting method; format: functional; conditions: MONO-MAC-6, 48 h, values are per cent of control
MONO-MAC-6 [9] = experiment: Antiproliferative activity against human MONO-MAC-6 cells assessed as inhibition of cell viability at 10^-8 M after 72 hrs by cell counting method; format: functional; conditions: MONO-MAC-6, 72 h, values are per cent of control
MONO-MAC-6 [10] = experiment: Antiproliferative activity against human MONO-MAC-6 cells assessed as inhibition of cell viability at 10^-7 M after 24 hrs by cell counting method; format: functional; conditions: MONO-MAC-6, 24 h, values are per cent of control
MONO-MAC-6 [11] = experiment: Antiproliferative activity against human MONO-MAC-6 cells assessed as inhibition of cell viability at 10^-7 M after 48 hrs by cell counting method; format: functional; conditions: MONO-MAC-6, 48 h, values are per cent of control
MONO-MAC-6 [12] = experiment: Antiproliferative activity against human MONO-MAC-6 cells assessed as inhibition of cell viability at 10^-7 M after 72 hrs by cell counting method; format: functional; conditions: MONO-MAC-6, 72 h, values are per cent of control
MONO-MAC-6 [13] = experiment: Antiproliferative activity against human MONO-MAC-6 cells assessed as inhibition of cell viability at 10^-6 M after 24 hrs by cell counting method; format: functional; conditions: MONO-MAC-6, 24 h, values are per cent of control
MONO-MAC-6 [14] = experiment: Antiproliferative activity against human MONO-MAC-6 cells assessed as inhibition of cell viability at 10^-6 M after 48 hrs by cell counting method; format: functional; conditions: MONO-MAC-6, 48 h, values are per cent of control
MONO-MAC-6 [15] = experiment: Antiproliferative activity against human MONO-MAC-6 cells assessed as inhibition of cell viability at 10^-6 M after 72 hrs by cell counting method; format: functional; conditions: MONO-MAC-6, 72 h, values are per cent of control
MONO-MAC-6 [16] = experiment: Antiproliferative activity against human MONO-MAC-6 cells assessed as cell viability at 10^-6 M after 24 hrs by cell counting method relative to untreated control; format: functional
MONO-MAC-6 [17] = experiment: Antiproliferative activity against human MONO-MAC-6 cells assessed as cell viability at 10^-6 M after 72 hrs by cell counting method relative to untreated control; format: functional
MONO-MAC-6 [18] = experiment: Induction of adhesion in human MONO-MAC-6 cells at 10^-9 M after 24 hrs by electrical impedence method relative to control; format: functional
MONO-MAC-6 [19] = experiment: Induction of adhesion in human MONO-MAC-6 cells at 10^-7 to 10^-6 M after 24 hrs by electrical impedence method relative to control; format: functional, cell-based
Serum [20] = experiment: Metabolic stability in human serum at 10 uM after 24 hrs by LC-MS analysis; format: ADME, cell-free
[21] = Drug metabolism in rat lysosomal homogenate assessed as H-Lys(MTX)HDWK(Dau=Aoa)P-OH formation at 0.1 ug/ul after 24 hrs by LC-MS analysis; format: ADME, tissue-based, Lysosome; conditions: tissue homogenate
MONO-MAC-6 [22] = experiment: Antiproliferative activity against human MONO-MAC-6 cells assessed as cell viability at 10^-7 to 10^-6 M after 48 hrs by cell counting method relative to untreated control; format: functional
MONO-MAC-6 [23] = experiment: Antiproliferative activity against human MONO-MAC-6 cells assessed as cell viability at 10^-7 to 10^-6 M after 72 hrs by cell counting method relative to untreated control; format: functional
MONO-MAC-6 [24] = experiment: Induction of adhesion in human MONO-MAC-6 cells at 10^-9 to 10^-6 M after 24 hrs by electrical impedence method relative to control; format: functional
MONO-MAC-6 [25] = experiment: Induction of adhesion in human MONO-MAC-6 cells at 10^-11 to 10^-12 M after 24 hrs by electrical impedence method relative to control; format: functional, cell-based
MONO-MAC-6 [26] = experiment: Induction of adhesion in human MONO-MAC-6 cells after 24 hrs by electrical impedence method; format: functional, cell-based
[27] = Drug metabolism in rat lysosomal homogenate assessed as H-Lys(Dau=Aoa)-OH formation at 0.1 ug/ul after 24 hrs by LC-MS analysis; format: ADME, tissue-based, Lysosome; conditions: tissue homogenate
MONO-MAC-6 [28] = experiment: Antiproliferative activity against human MONO-MAC-6 cells assessed as cell viability at 10^-7 M after 24 hrs by cell counting method relative to untreated control; format: functional
MONO-MAC-6 [29] = experiment: Antiproliferative activity against human MONO-MAC-6 cells assessed as cell viability at 10^-9 to 10^-6 M after 48 hrs by cell counting method relative to untreated control; format: functional
MONO-MAC-6 [30] = experiment: Antiproliferative activity against human MONO-MAC-6 cells assessed as cell viability at 10^-9 to 10^-6 M after 72 hrs by cell counting method relative to untreated control; format: functional
MONO-MAC-6 [31] = experiment: Induction of adhesion in human MONO-MAC-6 cells at 10^-8 to 10^-6 M after 24 hrs by electrical impedence method relative to control; format: functional
MONO-MAC-6 [32] = experiment: Induction of adhesion in human MONO-MAC-6 cells at 10^-7 M after 1.5 hrs by electrical impedence method relative to control; format: functional
[33] = Antitumor activity against mouse C26 cells allografted in Balb/C mouse assessed as tumor growth inhibition; format: functional

SMILES | IC50 (MCF7) | IC50 (LNCaP) | IC50 (HT-29) | Ratio (MONO-MAC-6 [3]) | viability, % of control at 0.001 µM (MONO-MAC-6 [4]) | viability, % of control at 0.001 µM (MONO-MAC-6 [5]) | viability, % of control at 0.001 µM (MONO-MAC-6 [6]) | viability, % of control at 0.01 µM (MONO-MAC-6 [7]) | viability, % of control at 0.01 µM (MONO-MAC-6 [8]) | viability, % of control at 0.01 µM (MONO-MAC-6 [9]) | viability, % of control at 0.1 µM (MONO-MAC-6 [10]) | viability, % of control at 0.1 µM (MONO-MAC-6 [11]) | viability, % of control at 0.1 µM (MONO-MAC-6 [12]) | viability, % of control at 1 µM (MONO-MAC-6 [13]) | viability, % of control at 1 µM (MONO-MAC-6 [14]) | viability, % of control at 1 µM (MONO-MAC-6 [15]) | Ratio (MONO-MAC-6 [16]) | Ratio (MONO-MAC-6 [17]) | Activity (MONO-MAC-6 [18]) | Stability (Serum [20]) | other results
CC(=O)NCCCC[C@H](NC(=O)[C@H](Cc1c[nH]c2ccccc12)NC(=O)[C@H](CC(=O)O)NC(=O)[C@H](Cc1cnc[nH]1)NC(=O)[C@H](CCCCNC(=O)[C@H](CCC(=O)O)NC(=O)c1ccc(N(C)Cc2cnc3nc(N)nc(N)c3n2)cc1)NC(=O)[C@H](Cc1c[nH]c2ccccc12)NC(=O)[C@H](Cc1cnc[nH]1)NC(=O)[C@@H]1CCC(=O)N1)C(=O)N1CCC[C@H]1C(=O)NCC(N)=O | > 50 µM | > 50 µM | > 50 µM | – | – | – | – | – | – | – | – | – | – | – | – | – | – | – | – | – | Stability (Serum [1]): Stable; Drug metabolism [2]: Active
COc1cccc2c1C(=O)c1c(O)c3c(c(O)c1C2=O)C[C@@](O)(/C(C)=N/OCC(=O)NCCCC[C@H](NC(=O)[C@H](CCC(=O)O)NC(=O)c1ccc(N(C)Cc2cnc4nc(N)nc(N)c4n2)cc1)C(=O)NCCCC[C@H](NC(=O)[C@H](Cc1c[nH]c2ccccc12)NC(=O)[C@H](CC(=O)O)NC(=O)[C@H](Cc1cnc[nH]1)NC(=O)[C@H](CO)NC(=O)[C@H](Cc1c[nH]c2ccccc12)NC(=O)[C@H](Cc1cnc[nH]1)NC(=O)[C@@H]1CCC(=O)N1)C(=O)N1CCC[C@H]1C(=O)NCC(N)=O)C[C@@H]3O[C@H]1C[C@H](N)[C@H](O)[C@H](C)O1 | 5.4 µM | 11.3 µM | 5.6 µM | 0.9 | 116% | 93% | 99% | 128% | 91% | 97% | 105% | 97% | 94% | 82% | 63% | 38% | 1 | 0.77 | 77.6% | Stable | Activity (MONO-MAC-6 [19]): inactive; Drug metabolism [21]: Active
CN(Cc1cnc2nc(N)nc(N)c2n1)c1ccc(C(=O)N[C@@H](CCC(=O)O)C(=O)O)cc1 [METHOTREXATE] | – | 0.3 µM | 1.4 µM | – | 101% | 97% | 96% | 102% | 94% | 60% | 89% | 52% | 27% | 80% | 52% | 29% | 0.95 | 0.77 | – | – | Ratio (MONO-MAC-6 [22]): 0.98; Ratio (MONO-MAC-6 [23]): 0.76; Activity (MONO-MAC-6 [24]): 140%; Activity (MONO-MAC-6 [25]): Active
COc1cccc2c1C(=O)c1c(O)c3c(c(O)c1C2=O)C[C@@](O)(/C(C)=N/OCC(=O)NCCCC[C@H](NC(=O)[C@H](Cc1c[nH]c2ccccc12)NC(=O)[C@H](CC(=O)O)NC(=O)[C@H](Cc1cnc[nH]1)NC(=O)[C@H](CCCCNC(=O)[C@H](CCC(=O)O)NC(=O)c1ccc(N(C)Cc2cnc4nc(N)nc(N)c4n2)cc1)NC(=O)[C@H](Cc1c[nH]c2ccccc12)NC(=O)[C@H](Cc1cnc[nH]1)NC(=O)[C@@H]1CCC(=O)N1)C(=O)N1CCC[C@H]1C(=O)NCC(N)=O)C[C@@H]3O[C@H]1C[C@H](N)[C@H](O)[C@H](C)O1 | 5.8 µM | 28.8 µM | 3.6 µM | 0.98 | 108% | 89% | 81% | 103% | 92% | 103% | 98% | 94% | 104% | 88% | 86% | 76% | 1.06 | 0.95 | 135% | Stable | Activity (MONO-MAC-6 [26]): Dose-dependent effect; Drug metabolism [27]: Active
COc1cccc2c1C(=O)c1c(O)c3c(c(O)c1C2=O)C[C@@](O)(C(C)=O)C[C@@H]3O[C@H]1C[C@H](N)[C@H](O)[C@H](C)O1 [DAUNORUBICIN] | 0.4 µM | 0.1 µM | 0.2 µM | – | 97% | 36% | 21% | 95% | 35% | 17% | 59% | 26% | 14% | 46% | 27% | 16% | – | – | – | – | Ratio (MONO-MAC-6 [28]): 0.85; Ratio (MONO-MAC-6 [29]): 0.45; Ratio (MONO-MAC-6 [30]): 0.49; Activity (MONO-MAC-6 [31]): 121%; Activity (MONO-MAC-6 [32]): 142%; growth inhibition (GI) [33]: 24.4%
